Measurements reported in patent publication US20040127467A1, “Synthesis of pancratistatin prodrugs” (priority 2003, published 2004).

How the values were obtained:
RNA viruses = details: cited from earlier work
[1] = test system: U.S. National Cancer Institute (NCI) panel of cancer cell lines; details: cited from earlier work
[2] = compared with pancratistatin (1a); cited from earlier work
[3] = test system: minipanel of human cancer cell lines; test: minipanel of human cancer cell lines growth inhibition; type: cell-based; details: murine P388 and minipanel of human cancer cell lines (Table I)
Description: All of the synthetic products were evaluated against the murine P388 lymphocytic leukemia cell line and a minipanel of human cancer cell lines.

[4] = test system: murine P388 lymphocytic leukemia cell line; details: compared with pancratistatin (1a); cited from earlier work

Question: What does the source list for `O=C1N[C@H]2[C@H](O)[C@H](O)[C@@H](O)[C@H](O)[C@@H]2c2cc3c(c(O)c21)OCO3` [1a, (+)-pancratistatin]?
Answer: activity against a range of RNA viruses (in words) (RNA viruses): activity against a range of RNA viruses; in vitro cancer cell growth inhibitory activities (in words) [1]: strong

Question: Which results are given for `O=C1N[C@H]2[C@H](O)[C@H](O)[C@@H](O)[C@H](O)[C@@H]2c2cc3c(c(OP(=O)([O-])[O-])c21)OCO3.[Na+].[Na+]` [2a, Disodium 7-O-phosphoryl-pancratistatin]?
Answer: solubility characteristics in water (in words) [2]: greatly improved solubility characteristics in water; cancer cell line activity (in words) [3]: high activity; activity against the murine P388 lymphocytic leukemia cell (in words) [4]: equal activity

Question: With `C1COCCN1.O=C1NC2C(O)C(O)C(O)C(O)C2c2cc3c(c(OP(=O)(O)O)c21)OCO3` (stereo not drawn) [2k, Morpholine pancratistatin 7-O-phosphate] as the compound, how does the “water solubility (in words)” value read?
Answer: poor water solubility
